{"source": "patent US10285958B2", "about": "“Genotype- or phenotype-based drug formulation” (BAYER AKTIENGESELLSCHAFT, priority 2012, dated 2019)", "origin": "cited, not measured here", "key": {"[1]": {"molecular_target": "polymorphic cytochrome P450 (CYP) 2D6 (Homo sapiens, UniProt P10635)", "sequence (P10635 whole entry)": "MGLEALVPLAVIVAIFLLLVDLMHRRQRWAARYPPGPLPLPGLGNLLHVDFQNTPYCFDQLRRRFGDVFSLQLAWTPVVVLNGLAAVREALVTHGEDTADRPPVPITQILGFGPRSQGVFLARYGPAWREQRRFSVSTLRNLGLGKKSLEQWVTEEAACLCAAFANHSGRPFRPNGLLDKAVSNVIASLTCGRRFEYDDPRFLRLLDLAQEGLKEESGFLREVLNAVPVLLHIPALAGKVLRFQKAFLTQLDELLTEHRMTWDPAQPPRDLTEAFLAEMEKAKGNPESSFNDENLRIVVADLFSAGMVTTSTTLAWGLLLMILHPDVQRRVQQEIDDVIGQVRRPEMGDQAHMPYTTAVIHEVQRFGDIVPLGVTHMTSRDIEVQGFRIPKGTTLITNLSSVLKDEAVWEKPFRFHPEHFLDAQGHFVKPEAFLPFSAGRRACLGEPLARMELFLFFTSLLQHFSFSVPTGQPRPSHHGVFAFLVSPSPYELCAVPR", "details": "humans"}}, "note": "Read-outs that look alike come from different tables or passages of the source."}
{"smiles": "CC/C(=C(\\c1ccccc1)c1ccc(OCCN(C)C)cc1)c1ccccc1", "note": "[tamoxifen]", "values": [{"measurement": "time until steady-state concentration of endoxifen is achieved", "setting": "standard dosage 20 mg of tamoxifen, European patients of CYP2D6 EM genotype or phenotype", "result": "about 80 days"}, {"measurement": "endoxifen concentrations after increased tamoxifen dose", "setting": "up to 40 mg of tamoxifen per day as two individual doses, CYP2D6 IMs and PMs, versus EMs on 20 mg", "result": "did not lead to the endoxifen concentrations observed in CYP2D6 EMs"}]}
{"smiles": "CC/C(=C(\\c1ccccc1)c1ccc(OCCNC)cc1)c1ccccc1", "note": "[N-desmethyltamoxifen]", "values": [{"measurement": "formation of endoxifen from N-desmethyltamoxifen via CYP2D6", "setting": "[1]", "result": "exclusively"}]}
{"smiles": "CC/C(=C(\\c1ccc(O)cc1)c1ccc(OCCNC)cc1)c1ccccc1", "note": "[endoxifen]", "values": [{"measurement": "endoxifen concentration in blood under tamoxifen therapy", "setting": "CYP2D6 IM, versus EM or UM phenotype", "result": "distinctly below"}, {"measurement": "endoxifen concentration in blood under tamoxifen therapy", "setting": "CYP2D6 PM", "result": "very low"}]}
